ChEMBL document CHEMBL1165979, “Peptide fragmentation as an approach in modeling of an active peptide and designing a competitive inhibitory peptide for HMG-CoA reductase” (Bioorg Med Chem, 2010)
Non-standard residues stand in square brackets, D forms with d. Residues, ends and D or L forms follow the SMILES beside them. Phe(4-F) = N[C@@H](Cc1ccc(F)cc1)C(=O)O

What was measured:
[1] = biological target: T1, 3-hydroxy-3-methylglutaryl-coenzyme A reductase (Homo sapiens, UniProt P04035); assay: Inhibition of HMG-CoA reductase by spectrophotometry
T1 sequence (P04035 whole entry): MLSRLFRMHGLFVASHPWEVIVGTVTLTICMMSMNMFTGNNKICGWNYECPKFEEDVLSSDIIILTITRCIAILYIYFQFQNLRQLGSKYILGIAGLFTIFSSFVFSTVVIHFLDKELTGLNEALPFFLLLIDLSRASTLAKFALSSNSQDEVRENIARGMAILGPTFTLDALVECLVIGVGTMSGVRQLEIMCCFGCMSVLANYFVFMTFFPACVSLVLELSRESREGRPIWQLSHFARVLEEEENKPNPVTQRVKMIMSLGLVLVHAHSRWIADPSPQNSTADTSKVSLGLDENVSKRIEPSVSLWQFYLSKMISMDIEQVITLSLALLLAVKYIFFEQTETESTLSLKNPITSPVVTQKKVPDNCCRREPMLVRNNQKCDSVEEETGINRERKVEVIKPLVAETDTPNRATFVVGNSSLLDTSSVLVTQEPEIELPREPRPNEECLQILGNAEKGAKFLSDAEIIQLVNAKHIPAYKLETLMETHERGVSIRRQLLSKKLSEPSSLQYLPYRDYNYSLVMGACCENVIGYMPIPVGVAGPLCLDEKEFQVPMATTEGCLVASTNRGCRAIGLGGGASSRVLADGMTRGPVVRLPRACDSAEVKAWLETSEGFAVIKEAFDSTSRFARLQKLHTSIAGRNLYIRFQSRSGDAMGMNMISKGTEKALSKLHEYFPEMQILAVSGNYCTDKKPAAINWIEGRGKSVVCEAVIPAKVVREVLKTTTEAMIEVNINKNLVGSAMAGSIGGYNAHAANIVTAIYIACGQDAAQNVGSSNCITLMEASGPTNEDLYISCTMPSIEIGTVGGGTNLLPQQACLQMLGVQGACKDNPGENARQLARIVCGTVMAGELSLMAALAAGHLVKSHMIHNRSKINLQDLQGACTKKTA

[2] = biological target: T1, 3-hydroxy-3-methylglutaryl-coenzyme A reductase; assay: Competitive inhibition of HMG-CoA reductase by Dixon plot analysis

Row | Compound | IC50 ([1]; read-out: IC50) [µM] | IC50 [1] | Ki [2] [µM]
1 | NCC(=O)N[C@@H](Cc1ccc(F)cc1)C(=O)N1CCC[C@H]1C(=O)N[C@@H](CCC(=O)O)C(=O)NCC(=O)NCC(=O)O (H-G[Phe(4-F)]PEGG-OH) | 0.75 | – | –
2 | NCC(=O)N[C@@H](Cc1ccc(F)cc1)C(=O)N1CCC[C@H]1C(=O)NCC(=O)NCC(=O)NCC(=O)O (H-G[Phe(4-F)]PGGG-OH) | – | Not Active | –
3 | H-GFPEGG-OH | 1.78 | – | –
4 | H-FFYVAE-OH | 2.56 | – | –
5 | H-EFGYVAE-OH | 0.24 | – | –
6 | H-DFGYVAE-OH | 0.16 | – | 0.051
7 | CC[C@H](C)[C@H](N)C(=O)N[C@H](C(=O)N[C@@H](C)C(=O)N[C@@H](CCC(=O)O)C(=O)O)C(C)C (H-IVAE-OH) | 52.7 | – | –
8 | H-GLPEGG-OH | 27.3 | – | –
9 | CC(C)[C@H](NC(=O)[C@@H](N)Cc1ccc(O)cc1)C(=O)N[C@@H](C)C(=O)N[C@@H](CCC(=O)O)C(=O)O (H-YVAE-OH) | 41.2 | – | –
10 | NCC(=O)N[C@@H](Cc1ccc(F)cc1)C(=O)N1CCC[C@H]1C(=O)N[C@@H](CC(=O)O)C(=O)NCC(=O)NCC(=O)O (H-G[Phe(4-F)]PDGG-OH) | 6.95 | – | –
11 | H-IAVPTGVA-OH | 152 | – | –
12 | H-GLPTGG-OH | 19.4 | – | –
13 | H-GFPDGG-OH | 1.52 | – | –
14 | CC(C)[C@H](NC(=O)[C@H](C)NC(=O)[C@@H](N)Cc1ccc(O)cc1)C(=O)N[C@@H](CCC(=O)O)C(=O)O (H-YAVE-OH) | 44.8 | – | –
15 | CC(C)C[C@H](N)C(=O)N1CCC[C@H]1C(=O)N[C@@H](Cc1ccc(O)cc1)C(=O)N1CCC[C@H]1C(=O)O (H-LPYP-OH) | 485 | – | –
16 | CC(C)[C@H](NC(=O)[C@@H](N)Cc1ccc(F)cc1)C(=O)N[C@@H](C)C(=O)N[C@@H](CCC(=O)O)C(=O)O (H-[Phe(4-F)]VAE-OH) | 3.84 | – | –
17 | C[C@@H](O)[C@H](NC(=O)[C@@H]1CCCN1C(=O)[C@H](Cc1ccc(F)cc1)NC(=O)CN)C(=O)NCC(=O)NCC(=O)O (H-G[Phe(4-F)]PTGG-OH) | 4.82 | – | 0.26

Results, then the compound that gave them:

Row | IC50 ([1]; read-out: IC50) [µM] | IC50 [1] | Ki [2] [µM] | Compound
18 | 0.41 | – | – | H-FGYVAE-OH
19 | 8.52 | – | – | CC(C)[C@H](NC(=O)[C@H](Cc1ccc(F)cc1)NC(=O)CNC(=O)[C@@H](N)Cc1ccccc1)C(=O)N[C@@H](C)C(=O)N[C@@H](CCC(=O)O)C(=O)O (H-FG[Phe(4-F)]VAE-OH)
20 | 16.9 | – | – | H-GFPTGG-OH
21 | 0.26 | – | – | H-TFGYVAE-OH
22 | 1.47 | – | – | H-FPYVAE-OH
23 | 22.3 | – | – | H-GLPDGG-OH
24 | 0.27 | – | – | H-GFGYVAE-OH
25 | 75.2 | – | – | CC[C@H](C)[C@H](N)C(=O)N[C@@H](C)C(=O)N[C@H](C(=O)N[C@@H](CCC(=O)O)C(=O)O)C(C)C (H-IAVE-OH)
26 | – | Not Active | – | H-DFGYVAG-OH
27 | 201 | – | – | H-IAVPGEVA-OH
